# Marks after values point to notes of the source that are not given here.
# Columns and labels:
# [1] = system: Meloidogyne incognita; test: M. incognita miniaturized greenhouse assay on cucumber seedlings (root galling); assay type: in vivo; parameters: key to 1 ppm gall ratings / 1 ppm gall rating: mean of 3 gall ratings: 0=0-5%, 1=6-20%, 2=21-50%, 3=51-100% root galled
# Protocol: The test compound is dissolved in an acetone solution and added to water. A sprouted cucumber seedling is placed into a vial with dry sand and the water-chemical solution is added immediately. Twenty four hours later Meloidogyne incognita eggs are added to the vials and 10 to 12 days later the roots are evaluated for nematode galling.
# Cucumber seeds are sprouted for 3 days in moist paper towels. Acceptable sprouts should be 3 to 4 cm long with several lateral roots just emerging. Stock solutions of chemistry are prepared in a mixture of acetone and Triton X100 (412 mg in 500 mL) to a final concentration of 5 mg/mL. The chemical stock solution is then added to 10 mL deionized water plus 0.015% Triton X100 and mixed thoroughly. This is enough to test each condition in triplicate. Ten mL dry sand is added to each vial. At this time the solubility of the chemistry is visually determined and recorded as either ppt (large precipitates) or cloudy (fine precipitates). Seedlings are planted by tilting the vial and laying the seedling in the correct orientation so that the cotyledons are just above the sand and then tilting back to cover the radicles with sand. 3.3 ml water/chemical mix is added to each vial and the vials placed in racks under fluorescent light banks. The vials are inoculated two days after planting by adding 500 vermiform M. incognita eggs to each vial in 50 uL of deionized or spring water. The vials are then kept under the fluorescent lamps at ambient room temperature and watered as needed with 1 mL deionized water, usually twice during duration of test. Harvest of the cucumber plants is done 10 to 12 days after inoculation by washing sand off the roots. A root gall rating and visual phytotoxicity rating is assigned using the following scales: Gall rating scale (Gall: % root mass galled): 0=0-5%; 1=6-20%; 2=21-50%; and 3=51-100%. The average of the triplicate gall rating is then calculated: green=0.00-0.33 (no galls); yellow=0.67-1.33 (mild galling); orange=1.67-2.33 (moderate galling); red=2.67-3.00 (severe galling). Visual phytotoxicity scale is also assigned (Vis. tox; visual reduction in root mass compared to the control): rs1=mild stunting; rs2=moderate stunting; rs3=severe stunting.
# [2] = system: sting (Belonolaimus longicaudatus) nematodes; test: Sting nematode bench top soil assay; assay type: in vivo
# Protocol: Populations of sting (Belonolaimus longicaudatus) nematodes are maintained on St. Augustine turf grass on soil in 15-cm pots. At test initiation the turf is removed from the pots and the soil containing nematode eggs, juveniles, and adults is subdivided into pots each containing a volume of 125 cm^3′ The compounds to be tested are dissolved in 3 ml of acetone using 3, 6, or 15 mg to achieve equivalent surface area application rates of 2, 4, or 10 kg/ha, respectively. The 3 ml acetone stock solution is added to 30 ml of water, and 5 ml of that solution is used to drench each of 6 replicate test pots prepared as described above. The treated pots containing nematodes are incubated in the laboratory at ambient temperature of approximately 25° C. After 3 days the soil from each pot is washed onto a modified Baermann apparatus comprised of a screen supporting a layer of filter paper on which the soil sample is placed and set in a dish of water. The samples are then incubated at 25° C. for 24 hours to allow the live nematodes to migrate through the paper and screen and into a water reservoir to be collected for counting with a light microscope. Nematodes that have been killed or immobilized by the test compounds are not able to migrate into the reservoir.
# [3] = system: Meloidogyne incognita; test: Fall nematicidal field testing on squash microplots; assay type: in vivo
# From the text: The test site was located at 3511 Highway F in New Melle, Mo., Saint Charles county. The soil was a native prairie/pasture covering silty clay loam soil. Holes were dug using a Bobcat 763 skid loader with a 12-inch auger to a depth of 18 inches. Total volume of each hole was about 1.2 cubic feet. Six cubic yards of topsoil and 9 tons of river sand were purchased from Dardenne Farms Topsoil. Mixing to a ratio of 4 volumes sand to 1 volume soil was accomplished using a trailer-mounted 9 cubic foot concrete mixer. Holes were filled and then re-filled 5 days later after settling. The mixture was 92.5% sand, 2.5% silt, and 5% clay. Organic matter was 0.2% and pH was 6.8.
# Treatments were arranged in a block design with the blocks laid out perpendicular to the primary slope and parallel to secondary slope. There are 7 inoculated controls and 5 non-inoculated controls and the distributions of disease severity appeared independent of location.
# Application rates are expressed as kg of active material per hectare, and the mg per plot is based on the surface area of the bored and filled holes (0.000008559 Ha). The DC compounds were formulated immediately before application as follows: 1) the amount required to treat all six replicates was dissolved in 300 ml of acetone, 2) for each plot 50 ml of that solution was added to a graduated cylinder with 2 ml of 12.5% Triton X100 and the volume was raised to 500 ml with tap water. The resultant mix is the same as used in the standard greenhouse assays (10% acetone, 0.05%×100). The oxamyl treatments were prepared from Vydate 2 L formulated the same way. The 500 ml was placed in a watering can and the entire volume was evenly sprinkled over the surface of the plot. No runoff occurred and pooling, if any, was short lived. The final drench volume was 0.58 ml/cm^2, compared to 0.2 ml/cm^2 used in our greenhouse, however the microplots are much deeper so the drench volume applied per soil volume treated is roughly the same.
# Meloidogyne incognita eggs were harvested over a two week period and stored at approximately 5° C. until needed. A stock of 5.6 million vermiform eggs was adjusted to 9000/ml in 620 ml. One day after treatment, two holes were made in each plot about 7 cm apart and equidistant from the squash plants. Five ml of egg suspension was pipetted into each hole, which was then sealed and the plot lightly watered. A total of 90,000 vermiform eggs were added to each plot.
# The first root evaluation was at 28 DAT. The tops were cut off and weighed immediately in the field, and the roots were carefully dug out so as not to disturb the remaining plant.
# [4] = system: root knot nematode (RKN); test: RKN greenhouse soil assay on cucumber plants; assay type: in vivo, Meloidogyne incognita; conditions: 0 day treatment, test c
# From the text: Cucumber seeds are planted in a sandy soil mixture in two inch square plastic pots. When the cotyledons are fully opened and just as the first leaf begins to emerge, usually 7 days after planting, chemistry for the 7 day treatment is applied. One week later the chemistry for the 0 day treatment is applied. Separate plants are used for each application. The plants are generally in the 1-2 leaf stage now. At least four hours after the chemistry application the pots are inoculated with root knot nematode (RKN) eggs. Plants are rated for galling 14 days after the egg inoculation.
# One milligram of chemistry per four pots is equal to one kilogram per hectare of chemical. A standard test uses four replications. For rates above 2 kg/ha, the desired amount of chemical is weighed into a 30 ml vial (example: 8 kg/ha rate=8 mg chemical in 30 ml vial). The chemical is dissolved in 2 ml of appropriate solvent, generally acetone. For rates below 2 kg/ha, 2 milligrams of chemistry is weighed into the vial and dissolved in 2 ml of the solvent. The appropriate amount of chemical concentrate is then pipetted into a separate 30 ml vial and solvent is added to bring the volume to 2 ml (example 0.5 kg/ha=0.5 ml of concentrate+1.5 ml solvent). Each dissolved concentrate is then brought to a total of 20 milliliters using 0.05% Triton X 100 surfactant solution.
# Pots to be treated are moist but not saturated. To each of four pots, five milliliters of the appropriate chemical solution is pipetted to the media surface making sure to avoid contact with the base of the plant. Immediately following chemical application, using a mist nozzle, the pot surface is wetted sufficiently to saturate the pot watering in the chemistry. The chemical application is done in the morning.
# Nematode eggs, either SCN or RKN, are added to distilled water to create a concentration of 1000 vermiform eggs […]. At least four hours after chemical treatment the eggs are applied to the treated pots plus non-treated check plants. A small hole about 1 cm deep is punched into the pot surface. One milliliter of the nematode egg slurry is pipetted into the hole. Immediately afterwards the hole is gently covered. Watering of the test plants is then restricted to only water as needed to prevent wilt for a period of 24 hours. After the 24 hour restricted watering, normal sub-irrigation watering is done for the duration of the test.
# [5] = system: CD-1/Swiss derived albino mice; assay type: in vivo; conditions: 500 mg/kg oral, three female mice, observed up to 14 days
# Protocol: Acute oral toxicity testing was performed in mice in accordance with test method P203.UDP, as administered by Eurofins/Product Safety Laboratories (Dayton, N.J.). CD-1/Swiss derived albino mice were obtained and group housed in suspended solid bottom caging. The mice were fed rodent chow and filtered tap water was supplied ad libitum. Following acclimation to the laboratory setting, a group of animals was fasted overnight by removing food from the cages. After the fasting period, three female mice were selected based on vitality and initial body weights. The individual compound doses were calculated from these body weights.
# The test substance was prepared as a 1% (50 mg/kg) or 5% (500 mg/kg) weight to weight (w/w) mixture in a 0.5% w/w solution of carboxymethylcellulose (CMC) in distilled water. A tissue homogenizer was used to create a homogeneous mixture. A dose of 50 or 500 mg/kg was administered to three healthy mice per dose level by oral intubation using a ball-tipped gavage needle attached to a syringe. After administration, the animals were returned to their cages, and feed was replaced immediately after dosing.
# Body weights were recorded prior to initiation and on Days 7 and 14 or a soon as possible after death.
# [6] = system: Meloidogyne incognita; test: Summer field evaluation of pre-plant incorporated compounds on squash; assay type: in vivo
# Protocol: Test plots of 33 cm diameter holes were bored 41 cm deep into clay soil and filled with a mixture of 80% sand and 20% silt loam soil. Technical compound for each treatment was dissolved in 50 ml acetone containing 250 ul of Triton X-100 surfactant. This solution was added to 450 ml water and poured onto 95 liters of sand/soil mixture in a rotating drum mixer. While continuing to rotate the mixing drum 66 grams of chopped, galled, tomato roots was added and thoroughly distributed. The treated soil was sufficient to fill the top 15 cm of each of the 6 replicate plots, thus simulating a PPI treatment. The plots were then watered lightly and a mixture of M. incognita eggs and larvae were injected 5 cm deep at 5 points within the plot (100 k eggs/larvae in 10 ml per plot). Three-week old squash (cv. Liberator III) with 1 fully expanded true leaf was planted 4 days after soil treatment, one per plot.
# [7] = system: C. elegans; test: Three day C. elegans well assay; assay type: in vivo; conditions: for EC50 L4 2D (F1): effects on the second generation larvae (F1)
# Protocol: Various compounds were tested for nematicidal activity against C. elegans using contact assays in wells. The assays were performed as described below. The test compounds were solubilized in DMSO at 10 mg/ml to create 100× stock solutions. A dilution series was created by diluting the stock solution with DMSO. For each well assay 4 ul of the appropriate dilution is added to a well of a test plate. A 400 ul aliquot of bacterial stock (in M9 buffer with ampicillin and nystatin) are added to each well of the test plate. Worms are added and the test plate placed on a rotary shaker and held at 20° C. Worms are examined and scored at 4 hrs, 24 hrs, 48 hrs and 72 hours. L1 worms and L4 worms were used in the assay. L1 worms are prepared by plating eggs on a plate without a bacterial feeding layer. The eggs hatch and arrest at the L1 stage. This L1 stage population is then used to create a stock for the experiments. To create an L4 stage stock a small number of worms are taken from an overgrown and starved plate of worms and seeded on a plate with a bacterial feeder layer. A 25 ul aliquot of worms is added to each well in the assay.
# [8] = L4 larvae, two days of exposure
compound,measurement,setting,value
Clc1ccc(-c2nnc(-c3cccs3)o2)cc1 [compound 4559],1 ppm gall ratings,[1]; Table 1B test a,1^a (1=6-20%)
same,8 ppm gall ratings,"[1]; 8 ppm, average of triplicate gall rating, scale 0-3 (% root mass galled)",0 (0=0-5%)
same,Number of nematodes recovered from treated soil after 3 days incubation with the compound,[2]; 2 kg/ha,39
same,Number of nematodes recovered from treated soil after 3 days incubation with the compound,[2]; 4 kg/ha,47
same,Number of nematodes recovered from treated soil after 3 days incubation with the compound,[2]; 10 kg/ha,33
same,RG28 = % root galls at 28 days after treatment,"[3]; 2 kg ai/ha drench, squash",34.2%
same,RG43 = % root galls at 43 days after treatment,"[3]; 2 kg ai/ha drench, squash",24.0%
same,control of root galling compared with oxamyl at an equivalent rate,"[3]; 2 kg/ha, 43 day time point",significantly better than oxamyl
Clc1ccc(-c2nsc(-c3ccco3)n2)c(Cl)c1 [compound 5960],1 ppm gall ratings,[1]; Table 1B test e,0.33^e
same,percent control (galling reduction) relative to the control blank treatment,[4]; 0.05 kg/ha,— — 75^c percent
same,percent control (galling reduction) relative to the control blank treatment,[4]; 0.1 kg/ha,— — 75^c percent
same,percent control (galling reduction) relative to the control blank treatment,[4]; 0.25 kg/ha,— — 76^c percent
same,"mortality, signs of gross toxicity and behavioral changes",[5],"all animals survived, gained body weight, and appeared active and healthy"
same,0-3 vigor 16 DAP,"[6]; 4 kg (kg/ha) PPI, squash",3.0
same,0-3 vigor 21 DAP,"[6]; 4 kg (kg/ha) PPI, squash",3.0
same,feeder root (3 = ave) 31 DAP,"[6]; 4 kg (kg/ha) PPI, squash",3.3
same,gall % 31 DAP,"[6]; 4 kg (kg/ha) PPI, squash",24%
same,root wgt (g) 31 DAP,"[6]; 4 kg (kg/ha) PPI, squash",32.6 g
same,top wgt (lbs) 31 DAP,"[6]; 4 kg (kg/ha) PPI, squash",1.58 lbs
same,total fruit (lbs),"[6]; 4 kg (kg/ha) PPI, squash",1.61 lbs
same,control of M. incognita (in words),[6]; PPI application at 4 kg/ha,significant control
Fc1ccc(-c2noc(-c3ccco3)n2)c(F)c1 [compound 5849],EC50 L4 1D,"[7]; L4 larvae, one day of exposure",no
same,EC50 L4 2D (F1),[7]; [8],(6.3 F1) parts per million
Clc1ccccc1-c1cnc(-c2ccco2)o1 [compound 5828],EC50 L4 1D,"[7]; L4 larvae, one day of exposure",no
same,EC50 L4 3D,"[7]; L4 larvae, three days of exposure",no
same,EC50 L4 2D,[7]; [8],no
Clc1cc(-c2noc(-c3ccco3)n2)ccc1Br [compound 5821],EC50 L4 1D,"[7]; L4 larvae, one day of exposure",no
same,EC50 L4 2D (F1),[7]; [8],(0.4 F1) parts per million
Fc1ccc(-c2noc(-c3cccs3)n2)c(F)c1 [compound 5847],EC50 L1 1D,"[7]; L1 larvae, one day of exposure",no
same,EC50 L4 1D,"[7]; L4 larvae, one day of exposure",no
Clc1cc(-c2noc(-c3cccs3)n2)ccc1Br [compound 5820],EC50 L4 1D,"[7]; L4 larvae, one day of exposure",no
same,EC50 L4 2D (F1),[7]; [8],(25 F1) parts per million
